Data: US20250382239A1, “COMPOSITIONS FOR ENHANCING NITROGEN FERTILIZERS BY INCORPORATING ANTI-OXIDANT MOIETIES AND METHODS FOR USE THEREOF” (Verdesian Life Sciences U.S., LLC, priority 2022, published 2025)

Tested on: urease enzyme
Assay: Draeger tube NH3 volatilization screening of urease inhibitor compositions applied on urea prills on soil
Parameters: NH3 Draeger tube reading: unit not given here
Conditions: for urease enzyme inhibitory properties: exposed to soil alone or in combination with urea-containing fertilizer
Experimental: tBHQ (main active ingredient (AI)), solvents, additives (co-Actives) were obtained from commercial vendors. Draeger tube protocol was developed and used soils from NCSU Ag research facility at Oxford, North Carolina. Samples were prepared by co-dissolution in the appropriate solvent by rolling on a sample roller for 2-4 hours at ambient temperature and allowed to stand over weekend to make sure there was no haziness and/or precipitate that developed. Typical sample size was 4-4.5 g in a 12 mL cylindrical glass vial.
The following candidates were tBHQ+[x co-Active+y Solvent] where x and y varied.

## Oc1ccc(O)cc1 [hydroquinone, reference compound]
  urease enzyme inhibitory properties: significantly less efficacious urease enzyme inhibition properties

## CC(C)(C)c1cc(O)ccc1O [tert-butylhydroquinone]
  urease enzyme inhibitory properties: strong urease enzyme inhibitory properties

## NC(N)=O [Urea]
Round 10 (Table 11), 18 hrs
  NH3 Draeger tube reading: 0
Round 10 (Table 11), 24 hrs
  NH3 Draeger tube reading: 0
Round 10 (Table 11), 42 hrs
  NH3 Draeger tube reading: 125
Round 10 (Table 11), 48 hrs
  NH3 Draeger tube reading: 150
Round 10 (Table 11), 66 hrs
  NH3 Draeger tube reading: 150
Round 10 (Table 11), 90 hrs
  NH3 Draeger tube reading: 150
Round 10 (Table 11), 120 hrs
  NH3 Draeger tube reading: 150
Round 10 (Table 11), 187 hrs
  NH3 Draeger tube reading: 150
Round 10 (Table 11), 210 hrs
  NH3 Draeger tube reading: 150
Round 10 (Table 11), 266 hrs
  NH3 Draeger tube reading: 150
Round 10 (Table 11), 288 hrs
  NH3 Draeger tube reading: 150
Round 10 (Table 11), 330 hrs
  NH3 Draeger tube reading: 150
Round 10 (Table 11), 354 hrs
  NH3 Draeger tube reading: 150
Round 10 (Table 11), 381 hrs
  NH3 Draeger tube reading: 150
Round 10 (Table 11), […]
  NH3 Draeger tube reading: 150
Round 11 (Table 12), 16 hrs
  NH3 Draeger tube reading: 0
Round 11 (Table 12), 24 hrs
  NH3 Draeger tube reading: 0
Round 11 (Table 12), 40 hrs
  NH3 Draeger tube reading: 12
Round 11 (Table 12), 48 hrs
  NH3 Draeger tube reading: 36
Round 11 (Table 12), 64 hrs
  NH3 Draeger tube reading: 125.4
Round 11 (Table 12), 88 hrs
  NH3 Draeger tube reading: 150
Round 11 (Table 12), 160 hrs
  NH3 Draeger tube reading: 150
Round 11 (Table 12), 184 hrs
  NH3 Draeger tube reading: 150
Round 11 (Table 12), 232 hrs
  NH3 Draeger tube reading: 150
Round 11 (Table 12), 256 hrs
  NH3 Draeger tube reading: 150
Round 11 (Table 12), […]
  NH3 Draeger tube reading: 150
Round 12 (Table 13), 15 hrs
  NH3 Draeger tube reading: 0
Round 12 (Table 13), 23 hrs
  NH3 Draeger tube reading: 0
Round 12 (Table 13), 39 hrs
  NH3 Draeger tube reading: 31
Round 12 (Table 13), 48 hrs
  NH3 Draeger tube reading: 118
Round 12 (Table 13), 66 hrs
  NH3 Draeger tube reading: 150
Round 12 (Table 13), 90 hrs
  NH3 Draeger tube reading: 150
Round 12 (Table 13), 111 hrs
  NH3 Draeger tube reading: 150
Round 12 (Table 13), 159 hrs
  NH3 Draeger tube reading: 150
Round 12 (Table 13), 192 hrs
  NH3 Draeger tube reading: 150
Round 12 (Table 13), 216 hrs
  NH3 Draeger tube reading: 150
Round 12 (Table 13), 239 hrs
  NH3 Draeger tube reading: 150
Round 12 (Table 13), 260 hrs
  NH3 Draeger tube reading: 150
Round 12 (Table 13), 283 hrs
  NH3 Draeger tube reading: 150
Round 12 (Table 13), 304 hrs
  NH3 Draeger tube reading: 150
Round 12 (Table 13), 327 hrs
  NH3 Draeger tube reading: 150
Round 12 (Table 13), 357 hrs
  NH3 Draeger tube reading: 150
Round 12 (Table 13), 375 hrs
  NH3 Draeger tube reading: 150
Round 12 (Table 13), […]
  NH3 Draeger tube reading: 150
